Like-named read-outs stand apart in the source and are kept apart here. Marks after values point to notes of the source that are not given here.
Experiments:
[1] = system: Aquaporin-4 (AQP4); experiment: AQP4 expression in brain homogenate (ELISA), AlCl3 Alzheimer's model; type: in vivo, rat; details: 5, 10 and 20 mg/kg, FIG. 1
Source text: Aquaporin-4 (AQP4) is a channel protein that plays a fundamental role in glymphatic system, a pathway for fluid exchange in the central nervous system, as well as a central figure in the pathophysiology of neurodegenerative diseases such as Alzheimer's disease (AD) and frontotemporal dementia. It plays an important role in maintaining cerebral fluid homeostasis by acting as a water channel protein. The AQP4 not only enables water permeability through the blood-brain barrier and also regulates water exchange between perivascular spaces and the rest of the glymphatic system (Szczygielski et al., Cerebral Microcirculation, Perivascular Unit, and Glymphatic System: Role of Aquaporin-4 as the Gatekeeper for Water Homeostasis, Front. Neurol. 12:767470, doi: 10.3389/fneur.2021.767470). Further, Astrocytes are known to maintain extracellular potassium concentrations in the brain by a process termed “potassium siphoning”. Changes in potassium channel function alters brain homeostasis leading to brain impairment. Water movement via the AQP4 water channel localized to astrocyte end-feet maintains osmotic balance and promotes effective potassium siphoning (Verkman A S, Aquaporins in Clinical Medicine, Annu. Rev. Med. 2012. 63:303-16). […] In the present study, the levels were determined using ELISA kit (Biogenuix Medsystems Pvt. Ltd.).

[2] = system: substantia nigra; experiment: Brain histopathology of substantia nigra, reserpine Parkinson's model; type: in vivo, rat
Source text: The brain histopathology was done for all the experimental groups. The brain tissue was fixed in 10% buffered neutral formalin solution. The tissue was embedded in paraffin, sectioned at […] stained with hematoxylin and eosin (H&E). The sections were examined under light microscope to study the architecture of the brain tissue, and then photomicrographs were taken (Fischer A H, Jacobson K A, Rose J, Zeller R. Hematoxylin and eosin staining of tissue and cell sections. CSH Protoc. 2008:1;pdb.prot4986. doi: 10.1101/pdb.prot4986).
The induction of Parkinson's disease and measurement of other parameters were done as per the reported protocol (Santos et al., Cognitive, motor and tyrosine hydroxylase temporal impairment in a model of parkinsonism induced by reserpine. Behav Brain Res. 2013; 253:68-77 and Shishehbore et al. A novel kinetic spectrophotometric method for the determination of dopamine in biological and pharmaceutical samples. J Chem. 2013; 2013:1-6). Induction of Parkinson's disease was done by administering Resperine, which inhibits the monoamine vesicular transporters, thus decreasing the levels of monoamine neurotransmitters in the brain. Following pretreatment for 14 days with Gingerenone A, the rat groups received subcutaneous injections of reserpine (4 mg/kg) for the final five days of the treatment regimen. Resperine (5 mg) was dissolved in 1 ml of 1% acetic acid and then diluted tenfold with distilled water to achieve a final concentration of 500 μg/ml. The normal control group received saline with 1% acetic acid for 14 days, administered from day 10 to day 14. Thirty minutes following the administration of reserpine on the 14th day, behavioural assessments were conducted using the Open Field test, Y Maze, and Catalepsy tests to evaluate changes. […] Upon completion of the study, brains were harvested for biochemical analyses and histopathological studies. The experimental group is depicted in table 10.

[3] = system: Alzheimer's disease; experiment: Novel object recognition (NOR) test in rats with AlCl3-induced Alzheimer's disease; type: in vivo, rat; details: for % Recognition Index: p.o. + AlCl3 (100 mg/kg, i.p.), NOR at 15th day, Mean ± SEM, n = 6
Method: Novel object recognition (NOR)—Novel object recognition (NOR)—This test was performed as per reported protocol (Antunes M, Biala G. The novel object recognition memory: neurobiology, test procedure, and its modifications. Cognit. Process. 2012:13, 93-110). During the retrieval phase, the animal was allowed to explore the field for 10 min. The hippocampal functions were assessed through the recognition indices, which were measured according to the time spent by the animals to explore the familiar and new objects.
The test is a relatively fast and efficient means for testing learning and memory in an animal model. The test relies on only three sessions: one habituation session, one training session, and one test session and relies on rodents' natural proclivity for exploring novelty. This is a relatively low-stress, efficient test for memory in an animal model, and is appropriate for the detection of neuropsychological changes after the administration of test drugs (Lupetow L, Novel Object Recognition Test for the Investigation of Learning and Memory in Mice, J Vis Exp. 2017; (126): 55718).

[4] = system: β-amyloid (1-42); experiment: β-amyloid (1-42) level in plasma (ELISA), AlCl3 Alzheimer's model; type: in vivo, rat; details: for β-amyloid: p.o. + AlCl3 (100 mg/kg, i.p.), plasma, Mean ± SEM, n = 6
Source text: The levels of Tau, β-amyloid (1-42) and Apolipoprotein E were estimated. using ELISA kit (Krishgen Biosystems, India). All the protein biomarkers of AD were elevated in the AD control group.

[5] = system: BDNF; experiment: BDNF level in brain homogenate (ELISA), AlCl3 Alzheimer's model; type: in vivo, rat; details: for BDNF: p.o. + AlCl3 (100 mg/kg, i.p.), brain homogenate, Mean ± SEM, n = 6
Source text: Brain-derived neurotrophic factors (BDNFs) play an important role in maintaining synaptic plasticity in learning and memory. Depletion of BDNF has been linked with Aβ accumulation, tau phosphorylation, neuroinflammation and neuronal apoptosis. Considering AD as a synaptic disorder, BDNF has attracted increasing attention as a potential diagnostic biomarker and a therapeutical molecule for AD. In the current study, BDNF levels were determiner using ELISA kit (Krishgen Biosystems, India).

[6] = system: acetylcholinesterase (AChE); details: for Ach E: p.o. + AlCl3 (100 mg/kg, i.p.), brain homogenate, Mean ± SEM, n = 6
Method: At the conclusion of the study, the rats were euthanized by decapitation, and their brains were swiftly removed and placed in ice-cold saline solution. The cortex and hippocampus were carefully isolated and submerged in an ice-cold water container to halt enzymatic reactions. The levels of acetylcholinesterase (AChE) and butyrylcholinesterase (BChE) in the cortex and hippocampus regions of the brain were determined using Ellman's method from 1961. Approximately 100 mg of the isolated brain sections were weighed and homogenized in phosphate buffer (0.1 M, pH 8.0). To 0.4 mL of the homogenate, the following components were added: 2.6 mL of phosphate buffer (0.1 M, pH 8.0), 100 μL of 10 mM 5,5-dithio-bis-(2-nitrobenzoic acid) (DTNB), and 20 μL of acetylthiocholine iodide (AChI) solution (0.075 M). The mixture was thoroughly mixed. The absorbance was then measured at 412 nm for a duration of 5 minutes.
n=6, All the values were expressed in Mean±SEM (n=6). The statistical analysis was carried out using one way ANOVA.

SMILES: COc1cc(CC/C=C/C(=O)CCc2ccc(O)c(OC)c2)ccc1O [Gingerenone A]
- AQP4 expression (in words) [1]: increased AQP4 expression
- histopathology of substantia nigra ([2]; 5 mg/kg, FIG. 12): both normal [FIG. 12A—Arrow] and degenerative neuronal cells having dark nucleus with mild basophilic cytoplasm [FIG. 12B—Arrow] and focal reactive microgliosis. Scant inflammation was noted at places. The neuropils had focal vacuoles
- histopathology of substantia nigra ([2]; 10 mg/kg, FIG. 13): both normal [FIG. 13A—Arrow] and degenerative neuronal cells having variable darkly stained nucleus [FIG. 13B—Arrow] with mild basophilic cytoplasm and scant inflammation
- histopathology of substantia nigra ([2]; 20 mg/kg, FIG. 14): both normal [FIG. 14A—Arrow] and degenerative neuronal cells having variable darkly stained nucleus [14B—Arrow] with mild basophilic cytoplasm and scant inflammation
- % Recognition Index ([3]; 5 mg/kg): 56.23 ± 2.35%
- % Recognition Index ([3]; 10 mg/kg): 65.54 ± 2.78 %
- % Recognition Index ([3]; 20 mg/kg): 66.53 ± 3.20 %
- recognition index (in words) ([3]; AlCl3 model, Table 2): effectively improved the scores
- β-amyloid ([4]; 5 mg/kg): 10.74 ± 0.035 pg/mL
- β-amyloid ([4]; 10 mg/kg): 8.04 ± 0.023 pg/mL
- β-amyloid ([4]; 20 mg/kg): 7.88 ± 0.065 pg/mL
- levels of β-amyloid (in words) ([4]; AlCl3 model, Table 7): significantly reduced
- BDNF ([5]; 5 mg/kg): 29.36 ± 1.09 pg/mL
- BDNF ([5]; 10 mg/kg): 36.07 ± 1.54 pg/mL
- BDNF ([5]; 20 mg/kg): 38.76 ± 2.05 pg/mL
- levels of BDNF (in words) ([5]; AlCl3 model, Table 6): significantly increased the levels of BDNF
- Ach E ([6]; 5 mg/kg): 11.76 ± 0.93 10^−6 /mol/g of tissue
- Ach E ([6]; 10 mg/kg): 8.77 ± 0.49** 10^−6 /mol/g of tissue
- Ach E ([6]; 20 mg/kg): 6.87 ± 0.34** 10^−6 /mol/g of tissue
- Acetyl cholinesterase (in words) ([6]; AlCl3 model, Table 5): significantly inhibited Acetyl cholinesterase

From US20260325464A1, “COMPOSITIONS FOR MODULATING THE EXPRESSION OF AQUAPORINS IN NEURODEGENERATIVE DISORDERS” (priority 2023, published 2026)
